24 compounds from patent US7932262B2 (Novartis AG, priority 2006, dated 2011) can be followed below.

As usually defined, the IC50 is the concentration at which inhibition is half-maximal.

One test relates to A2780 cells. Put plainly: Cell Proliferation Assay (Cell Titer Glo), A2780. The format is cell-based. The note with it: Homo sapiens; cell proliferation, A2780 cells; read-out: CPEC50 A2780. Summed up:
(§1)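 Cells seeded at 1000/well, allowed to adhere 3-5 h, then exposed to DMSO-dissolved compounds for 3 days at 37° C., 5% CO2. Medium replaced before Cell Titer Glo addition; luminescence read after 10 min.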
(Cellular ATP, detected with luciferase, serves as a proxy for viable cell number.)

In another test the target is T1, PDK1 kinase (Homo sapiens, UniProt O15530).
T1 sequence (O15530 1-556): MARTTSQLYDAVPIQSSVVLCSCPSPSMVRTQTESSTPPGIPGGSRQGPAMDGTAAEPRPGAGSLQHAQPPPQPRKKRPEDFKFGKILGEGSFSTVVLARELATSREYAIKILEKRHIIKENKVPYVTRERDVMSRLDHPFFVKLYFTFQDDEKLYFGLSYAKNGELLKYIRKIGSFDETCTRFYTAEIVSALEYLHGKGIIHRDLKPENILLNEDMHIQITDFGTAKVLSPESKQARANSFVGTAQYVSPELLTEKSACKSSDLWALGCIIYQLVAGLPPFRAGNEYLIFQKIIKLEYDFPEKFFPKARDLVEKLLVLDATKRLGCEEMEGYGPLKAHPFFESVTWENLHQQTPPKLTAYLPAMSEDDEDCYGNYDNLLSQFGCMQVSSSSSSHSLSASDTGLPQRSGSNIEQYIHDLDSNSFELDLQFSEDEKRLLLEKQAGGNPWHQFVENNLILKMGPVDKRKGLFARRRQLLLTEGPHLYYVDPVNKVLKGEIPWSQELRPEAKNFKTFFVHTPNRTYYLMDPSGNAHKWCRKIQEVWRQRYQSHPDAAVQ
Put plainly: PDK1 Kinase Alpha Screen Assay. The format is biochemical. The following applies: PDK1 Kinase Alpha Screen Assay; read-out: PDK1 IC50. The procedure, abridged: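 Biotinylated PDK1-4 peptide (50 nM) phosphorylated by PDK1 with 10 uM ATP in pH 7.5 Tris/MgCl2/DTT buffer, 2.5% DMSO, for 3-18 hours. EDTA stop, then AlphaScreen detection with phospho-(Ser/Thr) PKA substrate antibody and protein A/streptavidin beads after overnight room-temperature development.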

In the next test the test system is PC3MM cells. Put plainly: Cell Proliferation Assay (Cell Titer Glo), PC3MM. The following applies: cell proliferation, PC3MM cells; read-out: CPEC50 PC3MM. The format is cell-based. The procedure, abridged: as §1
The test system of another test is PC-3 cells. Put plainly: Cell Proliferation Assay (Cell Titer Glo), PC-3 cell line. The format is cell-based. The following applies: Homo sapiens, PC-3, cell proliferation, PC3 cells; read-out: CPEC50 PC3. Summed up: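 PC-3 cells, 1000 cells/well, left to adhere 3-5 h, then exposed for 3 days at 37° C to compounds as 1:3 serial dilutions from 500× DMSO stocks diluted in growth medium. Medium then replaced with fresh medium and viability read by Cell Titer Glo luminescence.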

On to `NS(=O)(=O)c1ccc(Nc2ncc3cccc(OC4CCNCC4)c3n2)cc1` [Compound 718, 4-(8-(piperidin-4-yloxy)quinazolin-2-ylamino)benzenesulfonamide], for which the EC50 in the test on A2780 cells, with PC3MM cells and with PC-3 cells was < 5 µM in each case. Further, the IC50 on PDK1 kinase was < 5 µM.

`CC(C)N1CCC(Oc2cccc3cnc(Nc4ccc(S(N)(=O)=O)cc4)nc23)CC1` [Compound 725, 4-(8-(1-isopropylpiperidin-4-yloxy)quinazolin-2-ylamino)benzenesulfonamide]: the EC50 with A2780 cells, with PC3MM cells and in the test with PC-3 cells was < 5 µM throughout. In addition, the IC50 on PDK1 kinase was < 5 µM.

Turning to `NS(=O)(=O)c1ccc(Nc2ncc3cccc(O[C@@H]4CN5CCC4CC5)c3n2)cc1` [Compound 744, (S)-4-(8-(quinuclidin-3-yloxy)quinazolin-2-ylamino)benzenesulfonamide], the EC50 in the test with A2780 cells, in the test on PC3MM cells and with PC-3 cells was < 5 µM in each case. The IC50 at PDK1 kinase was < 5 µM.

In the case of `CN1C2CCC1CC(Oc1cccc3cnc(Nc4ccc(S(N)(=O)=O)cc4)nc13)C2` (stereo not shown) [Compound 749, 4-(8-(8-methyl-8-azabicyclo[3.2.1]octan-3-yloxy)quinazolin-2-ylamino)benzenesulfonamide], the EC50 in the test on A2780 cells, in the test with PC3MM cells and in the test with PC-3 cells was < 5 µM throughout. Further, the IC50 on PDK1 kinase is < 5 µM.

Regarding `NS(=O)(=O)c1ccc(Nc2ncc3ccc(OC4CCNCC4)cc3n2)cc1` [Compound 750, 4-(7-(piperidin-4-yloxy)quinazolin-2-ylamino)benzenesulfonamide], the EC50 in the test with A2780 cells, in the test with PC3MM cells and with PC-3 cells was < 5 µM in each case. The concentration for half-maximal inhibition (IC50) at PDK1 kinase was < 5 µM.

For `CN1CCC(Oc2ccc3cnc(Nc4ccc(S(N)(=O)=O)cc4)nc3c2)CC1` [Compound 763, 4-(7-(1-methylpiperidin-4-yloxy)quinazolin-2-ylamino)benzenesulfonamide], the EC50 with A2780 cells, with PC3MM cells and with PC-3 cells was < 5 µM in each case. Besides, at PDK1 kinase, the IC50 was < 5 µM.

Take `O=S(=O)(c1ccc(Nc2ncc3cccc(OC4CCNCC4)c3n2)cc1)N1CCOCC1` [Compound 771, N-(4-(morpholinosulfonyl)phenyl)-8-(piperidin-4-yloxy)quinazolin-2-amine]: the EC50 in the test on A2780 cells, with PC3MM cells and in the test on PC-3 cells was < 5 µM in each case. For the same compound, on PDK1 kinase, the 50% inhibitory concentration (IC50) was < 5 µM.

On to `CC(C)N1CCC(Oc2cccc3cnc(Nc4ccc(S(=O)(=O)N5CCOCC5)cc4)nc23)CC1` [Compound 772, 8-(1-isopropylpiperidin-4-yloxy)-N-(4-(morpholinosulfonyl)-phenyl)quinazolin-2-amine], for which the EC50 in the test on A2780 cells, with PC3MM cells and in the test on PC-3 cells was < 5 µM in each case. For the same compound, on PDK1 kinase, the IC50 was < 5 µM.

Turning to `CC(C)NS(=O)(=O)c1ccc(Nc2ncc3cccc(OC4CCNCC4)c3n2)cc1` [Compound 779, N-isopropyl-4-(8-(piperidin-4-yloxy)quinazolin-2-ylamino)benzenesulfonamide], the EC50 with A2780 cells, with PC3MM cells and with PC-3 cells was < 5 µM throughout. Besides, the concentration for half-maximal inhibition (IC50) at PDK1 kinase was < 5 µM.

As to `COCCNS(=O)(=O)c1ccc(Nc2ncc3cccc(OC4CCNCC4)c3n2)cc1` [Compound 780, N-(2-methoxyethyl)-4-(8-(piperidin-4-yloxy)quinazolin-2-ylamino)benzenesulfonamide], the EC50 with A2780 cells, with PC3MM cells and with PC-3 cells was < 5 µM in each case. On PDK1 kinase, the 50% inhibitory concentration (IC50) was < 5 µM.

In the case of `NS(=O)(=O)c1ccc(Nc2ncc3cccc(-c4ccc(N5CCCC5)nc4)c3n2)cc1` [Compound 832, 4-(8-(6-(pyrrolidin-1-yl)pyridin-3-yl)quinazolin-2-ylamino)benzenesulfonamide], the EC50 in the test on A2780 cells and in the test on PC3MM cells was < 5 µM each time. In addition, the IC50 on PDK1 kinase was < 5 µM.

For `NS(=O)(=O)c1ccc(Nc2ncc3cccc(-c4cc[nH]c(=O)c4)c3n2)cc1` [Compound 833, 4-(8-(2-oxo-1,2-dihydropyridin-4-yl)quinazolin-2-ylamino)benzenesulfonamide], the EC50 is 5 to 10 µM in the test with A2780 cells and < 5 µM in the test on PC3MM cells. Further, at PDK1 kinase, the IC50 is < 5 µM.

With `NS(=O)(=O)c1ccc(Nc2ncc3cccc(-c4ccc(N5CCS(=O)(=O)CC5)nc4)c3n2)cc1` [Compound 834], the EC50 in the test on A2780 cells and in the test on PC3MM cells was < 5 µM in each case. Further, on PDK1 kinase, the concentration for half-maximal inhibition (IC50) was < 5 µM.

As to `CC(C)CN1CC(Oc2cccc3cnc(Nc4ccc(S(N)(=O)=O)cc4)nc23)C1` [Compound 835, 4-(8-(1-isobutylazetidin-3-yloxy)quinazolin-2-ylamino)benzenesulfonamide], the EC50 in the test with A2780 cells and with PC3MM cells was < 5 µM in each case. In addition, the 50% inhibitory concentration (IC50) on PDK1 kinase is < 5 µM.

For `NS(=O)(=O)c1ccc(Nc2ncc3ccc(-c4ccc(F)nc4F)cc3n2)cc1` [Compound 836, 4-(7-(2,6-difluoropyridin-3-yl)quinazolin-2-ylamino)benzenesulfonamide], the EC50 in the test with A2780 cells and in the test on PC3MM cells was < 5 µM in each case. Further, the IC50 on PDK1 kinase was < 5 µM.

In the case of `NS(=O)(=O)c1ccc(Nc2ncc3ccc(-c4ccc(F)nc4)cc3n2)cc1` [Compound 837, 4-(7-(6-fluoropyridin-3-yl)quinazolin-2-ylamino)benzenesulfonamide], the EC50 in the test with A2780 cells and in the test on PC3MM cells was < 5 µM in each case. For the same compound, at PDK1 kinase, the 50% inhibitory concentration (IC50) was < 5 µM.

Regarding `Cc1ccc(Cl)cc1NC(=O)c1ccc2cnc(Nc3ccc(S(N)(=O)=O)cc3)nc2c1` [Compound 838, N-(5-chloro-2-metlhylphenyl)-2-(4-sulfamoylphenylamino)quinazoline-7-carboxamide], the EC50 with A2780 cells and in the test with PC3MM cells was < 5 µM throughout. Besides, the half-maximal inhibitory concentration (IC50) on PDK1 kinase was < 5 µM.

In the case of `Cc1csc(NC(=O)c2ccc3cnc(Nc4ccc(S(N)(=O)=O)cc4)nc3c2)c1C(N)=O` [Compound 839, N-(3-carbamoyl-4-methylthiophen-2-yl)-2-(4-sulfamoylphenylamino)quinazoline-7-carboxamide], the EC50 in the test with A2780 cells and in the test with PC3MM cells was < 5 µM throughout. Also, at PDK1 kinase, the IC50 was < 5 µM.

`NS(=O)(=O)c1ccc(Nc2ncc3ccc(-c4ccc5c(c4)CCNC5=O)cc3n2)cc1` [Compound 840, 4-(7-(1-oxo-1,2,3,4-tetrahydroisoquinolin-6-yl)quinazolin-2-ylamino)benzenesulfonamide]: the EC50 in the test on A2780 cells was 5 to 10 µM; in the test on PC3MM cells, < 5 µM. Moreover, the IC50 on PDK1 kinase was < 5 µM.

As for `CCN1CC(Oc2cccc3cnc(Nc4ccc(S(N)(=O)=O)cc4)nc23)C1` [Compound 841, 4-(8-(1-ethylazetidin-3-yloxy)quinazolin-2-ylamino)benzenesulfonamide], the EC50 in the test with A2780 cells and in the test with PC3MM cells was < 5 µM in each case. Moreover, the concentration for half-maximal inhibition (IC50) at PDK1 kinase was < 5 µM.

Take `Cc1ccc(C(N)=O)c(NC(=O)c2ccc3cnc(Nc4ccc(S(N)(=O)=O)cc4)nc3c2)c1` [Compound 842, N-(2-carbamoyl-5-methylphenyl)-2-(4-sulfamoylphenylamino)quinazoline-7-carboxamide]: the EC50 was 5 to 10 µM with A2780 cells and < 5 µM in the test on PC3MM cells. Further, at PDK1 kinase, the IC50 was < 5 µM.

On to `NS(=O)(=O)c1ccc(Nc2ncc3ccc(-c4cnc(=O)[nH]c4)cc3n2)cc1` [Compound 844, 4-(7-(2-oxo-1,2-dihydropyrimidin-5-yl)quinazolin-2-ylamino)benzenesulfonamide], for which the EC50 in the test with A2780 cells is 5 to 10 µM; in the test on PC3MM cells, < 5 µM. Besides, the IC50 at PDK1 kinase was < 5 µM.

As for `NS(=O)(=O)c1ccc(Nc2ncc3ccc(Br)c(OC4CCNCC4)c3n2)cc1` [Compound 845, 4-(7-bromo-8-(piperidin-4-yloxy)quinazolin-2-ylamino)benzenesulfonamide], the EC50 with A2780 cells and with PC3MM cells was < 5 µM throughout. The half-inhibitory concentration (IC50) at PDK1 kinase was < 5 µM.

As for `Cc1nn(C)c(C)c1-c1ccc2cnc(Nc3ccc(S(N)(=O)=O)cc3)nc2c1` [Compound 848, 4-(7-(1,3,5-trimethyl-1H-pyrazol-4-yl)quinazolin-2-ylamino)benzenesulfonamide], the EC50 in the test on A2780 cells and in the test on PC3MM cells was < 5 µM throughout. For the same compound, the IC50 on PDK1 kinase is < 5 µM.
